Our source for the Ki values is ChEMBL document CHEMBL1129427, “Novel AMPA receptor antagonists: synthesis and structure-activity relationships of 1-hydroxy-7-(1H-imidazol-1-yl)-6-nitro-2,3(1H,4H)- quinoxalinedione and related compounds” (J Med Chem, 1996).

Assay [1] deals with Glutamate receptor ionotropic, AMPA (Rattus norvegicus, UniProt P19490+P19491+P19492+P19493).
Description: Binding affinity towards Ionotropic glutamate receptor AMPA was determined in rat whole brain membrane using [3H]AMPA as radioligand
The target in assay [2] is Glutamate receptor ionotropic, kainate. In words: Binding affinity towards Ionotropic glutamate receptor kainate was determined in rat cortical membrane using [3H]KA as radioligand. Type of assay: cell membranes.
Assay [3] deals with Glutamate receptor ionotropic, NMDA 1 (Rattus norvegicus, UniProt P35439). Nature of the assay: Binding affinity towards glycine binding site on NMDA receptor was determined in rat whole brain membrane using strychnine-insensitive [3H]Gly as radioligand. Type of assay: cell membranes.
Assay [4] has as its target Glutamate NMDA receptor. In words: Binding affinity towards NMDA receptor was determined in rat whole brain membrane using NMDA-sensitive [3H]Glu as radioligand. In kind it is cell membranes.

The term Ki denotes a measure of affinity in units of concentration, obtained from inhibition or displacement. A higher Ki goes with lower affinity.

For `O=c1[nH]c2cc([N+](=O)[O-])c(-n3ccnc3)cc2n(C2CN3CCC2CC3)c1=O` (configuration not stated), affinity in assay [1] was put at a Ki of 1 µM.

`CCCn1c(=O)c(=O)[nH]c2cc(-n3ccnc3)c([N+](=O)[O-])cc21`: affinity in assay [1] was put at a Ki of 4.5 µM.

For the molecule `O=c1[nH]c2cc(-n3ccnc3)c([N+](=O)[O-])cc2n(O)c1=O`, in assay [1], the Ki is 0.44 µM.

With `Cn1c(=O)c(=O)[nH]c2cc([N+](=O)[O-])c(-n3ccnc3)cc21`, in assay [1], affinity was put at a Ki of 0.33 µM.

In turn, `CCCCCCCCCCn1c(=O)c(=O)[nH]c2cc([N+](=O)[O-])c(-n3ccnc3)cc21` yielded an inhibition constant (Ki) in assay [1] of 8.9 µM.

Consider `O=c1[nH]c2cc([N+](=O)[O-])c(-n3ccnc3)cc2n(C2CCCCC2)c1=O`, for which the inhibition constant Ki in assay [1] is 0.11 µM.

Molecule `CCn1c(=O)c(=O)[nH]c2cc([N+](=O)[O-])c(-n3ccnc3)cc21` showed a Ki in assay [1] of 0.19 µM.

`COn1c(=O)c(=O)[nH]c2cc([N+](=O)[O-])c(-n3ccnc3)cc21` returned a Ki in assay [1] of 0.38 µM.

With `CCCn1c(=O)c(=O)[nH]c2cc([N+](=O)[O-])c(-n3ccnc3)cc21`, the Ki in assay [1] turned out to be 0.14 µM.

In assay [1], `CCOn1c(=O)c(=O)[nH]c2cc([N+](=O)[O-])c(-n3ccnc3)cc21` yielded an inhibition constant Ki of 0.3 µM.

Take `O=c1[nH]c2cc([N+](=O)[O-])c(-n3ccnc3)cc2n(O)c1=O`: the Ki is 0.63 µM in assay [2], 0.021 µM in assay [1], 4.2 µM in assay [3] and 12 µM in assay [4].

`CC(C)CCn1c(=O)c(=O)[nH]c2cc([N+](=O)[O-])c(-n3ccnc3)cc21`: the affinity in assay [1] corresponds to a Ki of 0.23 µM.

Molecule `O=c1[nH]c2cc([N+](=O)[O-])c(-n3cncn3)cc2n(O)c1=O` had a Ki in assay [1] of 0.18 µM.

On to `O=c1[nH]c2cc([N+](=O)[O-])c(-n3ccnc3)cc2n(C2CCNC2)c1=O` (configuration not stated), for which the Ki in assay [1] came out at 0.55 µM.

Turning to `O=c1[nH]c2cc([N+](=O)[O-])c(-n3ccnc3)cc2n(CCO)c1=O`, the inhibition constant (Ki) in assay [1] is 0.42 µM.

For the molecule `O=c1[nH]c2cc(-n3ccnc3)c([N+](=O)[O-])cc2[nH]c1=O` [YM-90K], in assay [3], the affinity corresponds to a Ki of 37 µM.

`Cc1cn(-c2cc3c(cc2[N+](=O)[O-])[nH]c(=O)c(=O)n3O)cn1` gave a Ki in assay [1] of 0.05 µM.

On to `O=c1[nH]c2cc([N+](=O)[O-])c(-n3ccnc3)cc2n(CC2CCCCC2)c1=O`, for which affinity in assay [1] was put at a Ki of 0.79 µM.

In assay [1], `CN(C)CCn1c(=O)c(=O)[nH]c2cc([N+](=O)[O-])c(-n3ccnc3)cc21` yielded a Ki of 0.84 µM.
